Converted amounts (≈) assume the structure as drawn.
Legend:
[1] = test system: in vitro grown Mycobacteria (M. tuberculosis); experiment: QUM: Quantification of in vitro grown Mycobacteria (in vitro growth fluorescence assay); assay type: cell-based; details: Mycobacterium tuberculosis; MIC, 80% bacterial growth inhibition; in vitro growth; read-out: QUM
Method in brief: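 Mycobacterium tuberculosis grown in vitro was quantified by fluorescence across compound dose responses. MIC is defined as the minimum concentration producing 80% growth inhibition.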

[2] = test system: M. tuberculosis inside the host macrophage; experiment: QIM: Quantification of Intracellular Mycobacteria (intracellular growth assay, phenotypic cell-based); details: Mycobacterium tuberculosis; MIC, 80% bacterial growth inhibition; intracellular growth; read-out: QIM
Description: Accordingly, a phenotypic cell-based assay, suitable for high throughput screening, which allows for the search of compounds that would prevent M. tuberculosis multiplication inside the host macrophage was utilized (WO2010003533A2), overcoming many of the numerous and burdensome steps involved in previous methodologies (Arain et al., 1996).
A 120,000 small molecule compound library was screened using a validated phenotypic cell-based assay (WO2010003533A2). Active compounds from the primary screen were confirmed via dose response in the intracellular (QIM) assay and an in vitro (QUM) assay, wherein the abbreviation “QIM” stands for Quantification of Intracellular Mycobacteria and the abbreviation “QUM” stands for Quantification of in vitro grown Mycobacteria. […] The MIC is the minimum concentration of compound required to obtain 80% bacterial growth inhibition.
The imidazopyridine compounds (scaffolds Ia and Ib; see Table 1) underwent derivatization according to the methods outlined below (Schemes 1-13). Resulting derivatives were examined for inhibitory activity (MIC) using the assays described above (Example 1) and the results are summarized in Table 1.

Row | SMILES | MIC [1] [µM] | MIC [2] [µM]
1 | Cc1nc2c(O)cccn2c1C(=O)NCc1ccccc1 [Compound 43, N-Benzyl-8-hydroxy-2-methylimidazo[1,2-a]pyridine-3-carboxamide] | > 20 | > 20
2 | CCc1nc2ccc(C)cn2c1C(=O)NCc1ccc(Oc2ccccc2)cc1 [Compound 63, 2-Ethyl-6-methyl-N-(4-phenoxybenzyl)imidazo[1,2-a]pyridine-3-carboxamide] | < 1 | < 1
3 | CCc1nc2cc(Cl)ccn2c1C(=O)NCc1ccc(-c2ccc(C#N)cc2C)cc1 [Compound 132, 7-Chloro-N-((4′-cyano-2′-methylbiphenyl-4-yl)methyl)-2-ethylimidazo[1,2-a]pyridine-3-carboxamide] | < 1 | < 1
4 | CCc1nc2ccc(Cl)cn2c1C(=O)NCc1ccn(-c2ccc(OC(F)(F)F)cc2)n1 [Compound 231, 6-Chloro-2-ethyl-N-((1-(4-(trifluoromethoxy)phenyl)-1H-pyrazol-3-yl)methyl) imidazo[1,2-a]pyridine-3-carboxamide] | < 1 | < 1
5 | CCc1nc2ccc(Cl)cn2c1C(=O)NCc1ccn(-c2ccc(C(F)(F)F)cc2)n1 [Compound 233, 6-Chloro-2-ethyl-N-4-((1-(4-(trifluoromethyl)phenyl)-1H-pyrazol-3-yl)methyl)imidazo[1,2-a]pyridine-3-carboxamide] | > 20 | > 20
6 | Cc1nc2ccccn2c1C(=O)O [Compound 1, 2-Methylimidazo[1,2-a]pyridine-3-carboxylic acid] | > 20 | > 20
7 | CCc1nc2ccc(Cl)cn2c1C(=O)NCc1ccc(-c2ccc(Cl)cc2)cc1 [Compound 83, 6-Chloro-N-((4′-chlorobiphenyl-4-yl)methyl)-2-ethylimidazo[1,2-a]pyridine-3-carboxamide] | < 1 | < 1
8 | Cc1nc2ccc(F)cn2c1C(=O)NCc1ccccc1 [Compound 34, N-Benzyl-6-fluoro-2-methylimidazo[1,2-a]pyridine-3-carboxamide] | 1 to 20 (≈ 0.283 to 5.67 µg/mL) | 1 to 20 (≈ 0.283 to 5.67 µg/mL)
9 | CCc1nc2cc(Cl)ccn2c1C(=O)NCc1ccc(N2CCCCCC2)cc1 [Compound 222, N-(4-(Azepan-1-yl)benzyl)-7-chloro-2-ethylimidazo[1,2-a]pyridine-3-carboxamide] | < 1 | < 1
10 | CCc1nc2ccc(Cl)cn2c1C(=O)NCc1ccc(N2CCCCC2C)cc1 (stereo not drawn) [Compound 272, 6-chloro-2-ethyl-N-(4-(2-methylpiperidin-1-yl)benzyl)imidazo[1,2-a]pyridine-3-carboxamide] | < 1 | < 1
11 | CCc1nc2cc(Cl)ccn2c1C(=O)NCc1ccc(OC(F)(F)F)cc1 [Compound 102, 7-Chloro-2-ethyl-N-(4-(trifluoromethoxy)benzyl)imidazo[1,2-a]pyridine-3-carboxamide] | < 1 | 1 to 20 (≈ 0.398 to 7.96 µg/mL)
12 | CCc1nc2cc(Cl)ccn2c1C(=O)NCc1ccc(-c2cccc(C#N)c2)cc1 [Compound 128, 7-Chloro-N-((3′-cyanobiphenyl-4-yl)methyl)-2-ethylimidazo[1,2-a]pyridine-3-carboxamide] | > 20 | < 1
13 | CCc1nc2cc(Cl)ccn2c1C(=O)NCc1ccn(-c2ccc(F)cc2)n1 [Compound 236, 7-Chloro-2-ethyl-N-((1-(4-fluorophenyl)-1H-pyrazol-3-yl)methyl)imidazo[1,2-a]pyridine-3-carboxamide] | 1 to 20 (≈ 0.398 to 7.96 µg/mL) | > 20
14 | Cc1nc2ccccn2c1C(=O)NCc1ccc2[nH]ccc2c1 [Compound 17, N-((1H-Indol-5-yl)methyl)-2-methylimidazo[1,2-a]pyridine-3-carboxamide] | 1 to 20 (≈ 0.304 to 6.09 µg/mL) | 1 to 20 (≈ 0.304 to 6.09 µg/mL)
15 | CCc1nc2cc(Cl)ccn2c1C(=O)NCc1ccc(-c2ccccc2)cc1 [Compound 93] | < 1 | < 1
16 | CCc1nc2ccccn2c1C(=O)NCc1ccc(C(C)(C)C)cc1 [Compound 55, N-(4-tert-Butylbenzyl)-2-ethylimidazo[1,2-a]pyridine-3-carboxamide] | < 1 | < 1
17 | COC(=O)c1ccc(CNC(=O)c2c(C)nc3ccccn23)cc1 [Compound 10, Methyl 4-((2-me3thylimidazo[1,2-a]pyridine-3-carboxamido)methyl)benzoate] | 1 to 20 (≈ 0.323 to 6.47 µg/mL) | > 20
18 | Cc1ccn2c(C(=O)NCc3ccccc3)c(C)nc2c1 [Compound 31, N-Benzyl-2,7-dimethylimidazo[1,2-a]pyridine-3-carboxamide] | 1 to 20 (≈ 0.279 to 5.59 µg/mL) | < 1

Row | SMILES | MIC [1] [µM] | MIC [2] [µM]
19 | CCc1nc2ccc(Cl)cn2c1C(=O)NCc1ccc(-c2cccc(C#N)c2)cc1 [Compound 127, 6-Chloro-N-((3′-cyanobiphenyl-4-yl)methyl)-2-ethylimidazo[1,2-a]pyridine-3-carboxamide] | > 20 | < 1
20 | CC(C)c1nc2ccccn2c1C(=O)NCc1ccc(-c2ccccc2)cc1 [Compound 52, N-(Biphenyl-4-ylmethyl)-2-isopropylimidazo[1,2-a]pyridine-3-carboxamide] | 1 to 20 (≈ 0.369 to 7.39 µg/mL) | 1 to 20 (≈ 0.369 to 7.39 µg/mL)
21 | Cc1nc2c(C#N)cccn2c1C(=O)NCc1ccccc1 [Compound 42, N-Benzyl-8-cyano-2-methylimidazo[1,2-a]pyridine-3-carboxamide] | > 20 | > 20
22 | CCc1nc2ccc(Cl)cn2c1C(=O)NCc1ccn(-c2ccc(F)cc2)n1 [Compound 235, 6-Chloro-2-ethyl-N-((1-(4-fluorophenyl)-1H-pyrazol-3-yl)methyl)imidazo[1,2-a]pyridine-3-carboxamide] | 1 to 20 (≈ 0.398 to 7.96 µg/mL) | 1 to 20 (≈ 0.398 to 7.96 µg/mL)
23 | CCc1nc2cc(Cl)ccn2c1C(=O)NCc1ccc(-c2ccco2)cc1 [Compound 137, 7-Chloro-2-ethyl-N-(4-(furan-2-yl)benzyl)imidazo[1,2-a]pyridine-3-carboxamide] | 1 to 20 (≈ 0.38 to 7.6 µg/mL) | < 1
24 | CCc1nc2cc(Cl)ccn2c1C(=O)NCc1ccc(Oc2ccc(OC(F)(F)F)cc2)nc1 [Compound 195, 7-Chloro-2-ethyl-N-((6-(4-(trifluoromethoxy)phenoxy)pyridin-3-yl)methyl)imidazo[1,2-a]pyridine-3-carboxamide] | 1 to 20 (≈ 0.491 to 9.82 µg/mL) | 1 to 20 (≈ 0.491 to 9.82 µg/mL)
25 | Cc1nc2ccc(-c3ccccc3)cn2c1C(=O)NCc1ccccc1 [Compound 38, N-Benzyl-2-methyl-6-phenylimidazo[1,2-a]pyridine-3-carboxamide] | > 20 | > 20
26 | Cc1nc2ccccn2c1C(=O)NCc1ccncc1 [Compound 14, 2-Methyl-N-(pyridin-4-ylmethyl)imidazo[1,2-a]pyridine-3-carboxamide] | > 20 | > 20
27 | CCc1nc2ccccn2c1C(=O)NCc1ccc2c(ccn2C)c1 [Compound 56, 2-Ethyl-N-((1-methyl-1H-indol-5-yl)methyl)imidazo[1,2-a]pyridine-3-carboxamide] | < 1 | < 1
28 | CCc1nc2cc(Cl)ccn2c1C(=O)NCc1ccc(Cl)cc1 [Compound 87, 7-Chloro-N-(4-chlorobenzyl)-2-ethylimidazo[1,2-a]pyridine-3-carboxamide] | < 1 | < 1
29 | CCc1nc2cc(Cl)ccn2c1C(=O)NCc1ccc2[nH]c(-c3ccc(OC(F)(F)F)cc3)nc2c1 [Compound 205, 7-Chloro-2-ethyl-N-((2-(4-(trifluoromethoxy)phenyl)-1H-benzo[d]imidazol-5-yl)methyl) imidazo[1,2-a]pyridine-3-carboxamide] | > 20 | > 20
30 | CCc1nc2cc(Cl)ccn2c1C(=O)NCc1ccc(-c2ccc[nH]2)cc1 [Compound 136, N-(4-(1H-Pyrrol-2-yl)benzyl)-7-chloro-2-ethylimidazo[1,2-a]pyridine-3-carboxamide] | 1 to 20 (≈ 0.379 to 7.58 µg/mL) | 1 to 20 (≈ 0.379 to 7.58 µg/mL)
31 | CCCNc1ccc(CNC(=O)c2c(CC)nc3cc(Cl)ccn23)cc1 [Compound 106, 7-Chloro-2-ethyl-N-(4-(propylamino)benzyl)imidazo[1,2-a]pyridine-3-carboxamide] | < 1 | 1 to 20 (≈ 0.371 to 7.42 µg/mL)
32 | CCc1nc2cc(Cl)c(Cl)cn2c1C(=O)NCc1ccc(OC(F)(F)F)cc1 [Compound 153, 6,7-Dichloro-2-ethyl-N-(4-(trifluoromethoxy)benzyl)imidazo[1,2-a]pyridine-3-carboxamide] | 1 to 20 (≈ 0.432 to 8.64 µg/mL) | > 20
33 | Cc1nc2cc(-c3ccccc3)ccn2c1C(=O)NCc1ccccc1 [Compound 37, N-Benzyl-2-methyl-7-phenylimidazo[1,2-a]pyridine-3-carboxamide] | > 20 | > 20
34 | Cc1nc2ccccn2c1C(=O)NCCOc1ccccc1 [Compound 23, 2-Methyl-N-(2-phenoxyethyl)imidazo[1,2-a]pyridine-3-carboxamide] | 1 to 20 (≈ 0.295 to 5.91 µg/mL) | 1 to 20 (≈ 0.295 to 5.91 µg/mL)
35 | CCc1nc2ccc(C)cn2c1C(=O)NCc1ccc2ccn(C)c2c1 [Compound 67, 2-Ethyl-6-methyl-N-((1-methyl-1H-indol-6-yl)methyl)imidazo[1,2-a]pyridine-3-carboxamide] | < 1 | < 1
36 | Cc1nc2cc(C#N)ccn2c1C(=O)NCc1ccccc1 [Compound 35, N-Benzyl-7-cyano-2-methylimidazo[1,2-a]pyridine-3-carboxamide] | > 20 | > 20

— patent publication US8865734B2 (priority 2010, dated 2014)
